# Results published in PubChem BioAssay AID1919017 (Molecular Pharmacology Branch, DTP, NCI, 2023).
# Test system: SW1271 complex spheroids with HUVEC/MSC, growth, % test/control
# Assay: Anticancer human tumor SW1271 cell line growth inhibition [AhR];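 note: spheroids exposed to agents for 7 days before readout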
# Settings: for IC50: curve of first compound; for viability, T/C: stronger effect = lower value
# In short: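 Agents were dosed in half-log steps down from roughly clinical Cmax, or from 10 microM where Cmax was unknown, alone and with AhR antagonists. Read-out: percent test/control growth of tumor spheroids containing HUVEC and MSC stromal cells.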
# [1] = second compound 0.1 µM, first compound 0.0316 µM
# [2] = second compound 0.1 µM, first compound 0.1 µM
# [3] = second compound 0.1 µM, first compound 0.316 µM
# [4] = second compound 0.1 µM, first compound 1 µM
# [5] = second compound 0.316 µM, first compound 0.0316 µM
# [6] = second compound 0.316 µM, first compound 0.1 µM
# [7] = second compound 0.316 µM, first compound 0.316 µM
# [8] = second compound 0.316 µM, first compound 1 µM
# [9] = second compound 1 µM, first compound 0.0316 µM
# [10] = second compound 1 µM, first compound 0.1 µM
# [11] = second compound 1 µM, first compound 0.316 µM
# [12] = second compound 1 µM, first compound 1 µM
# [13] = second compound 3.16 µM, first compound 0.0316 µM
# [14] = second compound 3.16 µM, first compound 0.1 µM
# [15] = second compound 3.16 µM, first compound 0.316 µM
# [16] = second compound 3.16 µM, first compound 1 µM
# [17] = second compound 10 µM, first compound 0.0316 µM
# [18] = second compound 10 µM, first compound 0.1 µM
# [19] = second compound 10 µM, first compound 0.316 µM
# [20] = second compound 10 µM, first compound 1 µM
# [21] = second compound 0.1 µM, first compound 3.16 µM
# [22] = second compound 0.1 µM, first compound 10 µM
# [23] = second compound 0.316 µM, first compound 3.16 µM
# [24] = second compound 0.316 µM, first compound 10 µM
# [25] = second compound 1 µM, first compound 3.16 µM
# [26] = second compound 1 µM, first compound 10 µM
# [27] = second compound 3.16 µM, first compound 3.16 µM
# [28] = second compound 3.16 µM, first compound 10 µM
# [29] = second compound 10 µM, first compound 3.16 µM
# [30] = second compound 10 µM, first compound 10 µM
compound,measurement,setting,value
CCc1c2c(nc3ccc(O)cc13)-c1cc3c(c(=O)n1C2)COC(=O)[C@]3(O)CC + Cc1cncc(-c2nc(NCCc3c[nH]c4ccccc34)c3ncn(C(C)C)c3n2)c1,IC50,second compound 0.1 µM,> 300 nM
same,IC50,second compound 0.316 µM,> 300 nM
same,IC50,second compound 1 µM,255 nM
same,IC50,second compound 3.16 µM,162 nM
same,IC50,second compound 10 µM,1.82 nM
same,"viability, T/C","second compound 0.1 µM, first compound 0.000949 µM",86.5%
same,"viability, T/C","second compound 0.1 µM, first compound 0.003 µM",92.8%
same,"viability, T/C","second compound 0.1 µM, first compound 0.00949 µM",76.6%
same,"viability, T/C","second compound 0.1 µM, first compound 0.03 µM",57.4%
same,"viability, T/C","second compound 0.1 µM, first compound 0.0949 µM",59.5%
same,"viability, T/C","second compound 0.1 µM, first compound 0.3 µM",57.8%
same,"viability, T/C","second compound 0.316 µM, first compound 0.000949 µM",69.5%
same,"viability, T/C","second compound 0.316 µM, first compound 0.003 µM",79.8%
same,"viability, T/C","second compound 0.316 µM, first compound 0.00949 µM",83%
same,"viability, T/C","second compound 0.316 µM, first compound 0.03 µM",58.1%
same,"viability, T/C","second compound 0.316 µM, first compound 0.0949 µM",52.2%
same,"viability, T/C","second compound 0.316 µM, first compound 0.3 µM",48.9%
same,"viability, T/C","second compound 1 µM, first compound 0.000949 µM",116%
same,"viability, T/C","second compound 1 µM, first compound 0.003 µM",104%
same,"viability, T/C","second compound 1 µM, first compound 0.00949 µM",71%
same,"viability, T/C","second compound 1 µM, first compound 0.03 µM",74.2%
same,"viability, T/C","second compound 1 µM, first compound 0.0949 µM",64.1%
same,"viability, T/C","second compound 1 µM, first compound 0.3 µM",50.3%
same,"viability, T/C","second compound 3.16 µM, first compound 0.000949 µM",92%
same,"viability, T/C","second compound 3.16 µM, first compound 0.003 µM",90.2%
same,"viability, T/C","second compound 3.16 µM, first compound 0.00949 µM",75.2%
same,"viability, T/C","second compound 3.16 µM, first compound 0.03 µM",63.6%
same,"viability, T/C","second compound 3.16 µM, first compound 0.0949 µM",60.8%
same,"viability, T/C","second compound 3.16 µM, first compound 0.3 µM",41.5%
same,"viability, T/C","second compound 10 µM, first compound 0.000949 µM",55.5%
same,"viability, T/C","second compound 10 µM, first compound 0.003 µM",45%
same,"viability, T/C","second compound 10 µM, first compound 0.00949 µM",37.2%
same,"viability, T/C","second compound 10 µM, first compound 0.03 µM",27.9%
same,"viability, T/C","second compound 10 µM, first compound 0.0949 µM",24%
same,"viability, T/C","second compound 10 µM, first compound 0.3 µM",25.9%
CC1COCCN1c1cc(-c2ccnn2C)c2ccnc(-c3ccn[nH]3)c2n1 (stereo not given) + Cc1ccccc1N=Nc1ccc(NC(=O)c2ccnn2C)c(C)c1,IC50,second compound 0.1 µM,683 nM
same,IC50,second compound 0.316 µM,> 1000 nM
same,IC50,second compound 1 µM,> 1000 nM
same,IC50,second compound 3.16 µM,> 1000 nM
same,IC50,second compound 10 µM,> 1000 nM
same,"viability, T/C","second compound 0.1 µM, first compound 0.00316 µM",98.9%
same,"viability, T/C","second compound 0.1 µM, first compound 0.01 µM",97.4%
same,"viability, T/C",[1],88.5%
same,"viability, T/C",[2],72.7%
same,"viability, T/C",[3],61.6%
same,"viability, T/C",[4],44.6%
same,"viability, T/C","second compound 0.316 µM, first compound 0.00316 µM",102%
same,"viability, T/C","second compound 0.316 µM, first compound 0.01 µM",126%
same,"viability, T/C",[5],92.7%
same,"viability, T/C",[6],81.2%
same,"viability, T/C",[7],74.8%
same,"viability, T/C",[8],49.2%
same,"viability, T/C","second compound 1 µM, first compound 0.00316 µM",112%
same,"viability, T/C","second compound 1 µM, first compound 0.01 µM",96.9%
same,"viability, T/C",[9],106%
same,"viability, T/C",[10],83.6%
same,"viability, T/C",[11],85.3%
same,"viability, T/C",[12],49.6%
same,"viability, T/C","second compound 3.16 µM, first compound 0.00316 µM",100%
same,"viability, T/C","second compound 3.16 µM, first compound 0.01 µM",102%
same,"viability, T/C",[13],85.8%
same,"viability, T/C",[14],57%
same,"viability, T/C",[15],63.5%
same,"viability, T/C",[16],63%
same,"viability, T/C","second compound 10 µM, first compound 0.00316 µM",93.3%
same,"viability, T/C","second compound 10 µM, first compound 0.01 µM",95%
same,"viability, T/C",[17],99.9%
same,"viability, T/C",[18],72.3%
same,"viability, T/C",[19],55.1%
same,"viability, T/C",[20],58.2%
Nc1ccn(C2OC(CO)C(O)C2(F)F)c(=O)n1 (stereo not given) + Cc1cncc(-c2nc(NCCc3c[nH]c4ccccc34)c3ncn(C(C)C)c3n2)c1,IC50,second compound 0.1 µM,> 10000 nM
same,IC50,second compound 0.316 µM,> 10000 nM
same,IC50,second compound 1 µM,> 10000 nM
same,IC50,second compound 3.16 µM,> 10000 nM
same,IC50,second compound 10 µM,< 31.6 nM
same,"viability, T/C",[1],75.4%
same,"viability, T/C",[2],97.1%
same,"viability, T/C",[3],67%
same,"viability, T/C",[4],64%
same,"viability, T/C",[21],62.7%
same,"viability, T/C",[22],54.6%
same,"viability, T/C",[5],60.5%
same,"viability, T/C",[6],65.8%
same,"viability, T/C",[7],68%
same,"viability, T/C",[8],64.3%
same,"viability, T/C",[23],66.9%
same,"viability, T/C",[24],56.8%
same,"viability, T/C",[9],74.2%
same,"viability, T/C",[10],72.8%
same,"viability, T/C",[11],85.4%
same,"viability, T/C",[12],65%
same,"viability, T/C",[25],67.8%
same,"viability, T/C",[26],58.4%
same,"viability, T/C",[13],81.1%
same,"viability, T/C",[14],78.6%
same,"viability, T/C",[15],103%
same,"viability, T/C",[16],65%
same,"viability, T/C",[27],81.8%
same,"viability, T/C",[28],75.2%
same,"viability, T/C",[17],39.5%
same,"viability, T/C",[18],38.2%
same,"viability, T/C",[19],39.3%
same,"viability, T/C",[20],36.7%
same,"viability, T/C",[29],37.8%
same,"viability, T/C",[30],30.6%
O=C(c1cc(Cc2n[nH]c(=O)c3ccccc23)ccc1F)N1CCN(C(=O)C2CC2)CC1 + Cc1ccccc1N=Nc1ccc(NC(=O)c2ccnn2C)c(C)c1,IC50,second compound 0.1 µM,> 10000 nM
same,IC50,second compound 0.316 µM,> 10000 nM
same,IC50,second compound 1 µM,> 10000 nM
same,IC50,second compound 3.16 µM,> 10000 nM
same,IC50,second compound 10 µM,> 10000 nM
same,"viability, T/C",[1],82.5%
same,"viability, T/C",[2],101%
same,"viability, T/C",[3],98.3%
same,"viability, T/C",[4],91.4%
same,"viability, T/C",[21],88.4%
same,"viability, T/C",[22],78.9%
same,"viability, T/C",[5],106%
same,"viability, T/C",[6],104%
same,"viability, T/C",[7],102%
same,"viability, T/C",[8],98.7%
same,"viability, T/C",[23],96.3%
same,"viability, T/C",[24],90.8%
same,"viability, T/C",[9],79.5%
same,"viability, T/C",[10],116%
same,"viability, T/C",[11],104%
same,"viability, T/C",[12],92.5%
same,"viability, T/C",[25],114%
same,"viability, T/C",[26],98.3%
same,"viability, T/C",[13],94.3%
same,"viability, T/C",[14],109%
same,"viability, T/C",[15],104%
same,"viability, T/C",[16],81.9%
same,"viability, T/C",[27],99.2%
same,"viability, T/C",[28],100%
same,"viability, T/C",[17],89.4%
same,"viability, T/C",[18],107%
same,"viability, T/C",[19],108%
same,"viability, T/C",[20],83.5%
same,"viability, T/C",[29],89.5%
same,"viability, T/C",[30],102%
